Test results published in patent US12433874B2 (PRESCIENCE BIOTECHNOLOGY INC., priority 2022, dated 2025).

Columns and labels:
[1] = system: CT26 cells (murine colorectal carcinoma cell); test: CT26 mouse colon cancer model; format: in vivo; conditions: 5-FU 25 mg/kg Q3d*4, RAP-E 25 mg/kg Q3d*4
Description: CT26 model on Balb/c mice was used as another animal model, classified as three groups: a control group (no drug), a comparative group (administration of 5-FU, dose: 25 mg/kg, Q3d*4) and the inventive group (administration of RAP-E formulation, dose: 25 mg/kg, Q3d*4). 6 week old Balb/c mice (BioLasco, Ilan, Taiwan) were inoculated subcutaneously with 1*10^5 CT26 cells (murine colorectal carcinoma cell). Following tumor inoculation, measuring the tumor size twice a week, and starting treatment when the tumor grows to 80-100 mm^3.

[2] = BCS Class II drug; cited from earlier work
[3] = system: SKOV3 cells (human ovarian cancer cell); format: in vivo; conditions: docetaxel 4 mg/kg Q3d*4; RAP-E 50 mg/kg Q3d*4
From the text: Akt and mTOR phosphorylation are frequently detected in ovarian cancer, and SKOV3, an ovarian cancer cell line, is resistant to cis-platinum and doxorubicin.

[4] = tablet form; cited from earlier work

## O=c1[nH]cc(F)c(=O)[nH]1 [5-FU]
[1]
  Mean inhibition rate (tumor volume): 11%
  toxicity (body weight change): significant weight loss
[1]; day 16
  Day 16 tumor inhibition rate: 26%

## CO[C@H]1C[C@@H]2CC[C@@H](C)[C@@](O)(O2)C(=O)C(=O)N2CCCC[C@H]2C(=O)O[C@H]([C@H](C)C[C@@H]2CC[C@@H](O)[C@H](OC)C2)CC(=O)[C@H](C)/C=C(\C)[C@@H](O)[C@@H](OC)C(=O)[C@H](C)C[C@H](C)/C=C/C=C/C=C/1C [Rapamycin]
[2]
  permeability: high permeability

## CC(=O)O[C@@]12CO[C@@H]1C[C@H](O)[C@@]1(C)C(=O)[C@H](O)C3=C(C)[C@@H](OC(=O)[C@H](O)[C@@H](NC(=O)OC(C)(C)C)c4ccccc4)C[C@@](O)([C@@H](OC(=O)c4ccccc4)[C@H]21)C3(C)C [docetaxel]
[3]
  Mean inhibition rate (tumor volume): 53%

## CO[C@H]1C[C@@H]2CC[C@@H](C)[C@@](O)(O2)C(=O)C(=O)N2CCCC[C@H]2C(=O)O[C@H]([C@H](C)C[C@@H]2CC[C@@H](OCCO)[C@H](OC)C2)CC(=O)[C@H](C)/C=C(\C)[C@@H](O)[C@@H](OC)C(=O)[C@H](C)C[C@H](C)/C=C/C=C/C=C/1C [everolimus]
[4]
  bioavailability: ~20%
